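Grown in 96-well plates, cells were treated for 48 hours with each compound at five concentrations. Insufficient inhibition: endpoint recorded as highest concentration tested. Here, GI50 denotes the concentration required for 50% inhibition of growth.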 Calls of active or inactive are those of the source. Cut-off read from the data, not from the text of the source: active = GI50 up to about 1.1 µM and inactive = higher.
Tests used:
Experiment in all cases: NCI tumour cell line growth inhibition, 48 h
[1] = test system: OVCAR-5
[2] = test system: MDA-N
[3] = test system: LOX IMVI
[4] = test system: A549
[5] = test system: TK-10
[6] = test system: CAKI-1
[7] = test system: HT-29
[8] = test system: MDA-MB-435
[9] = test system: DU-145
[10] = test system: SF-539
[11] = test system: ACHN
[12] = test system: NCI-H226
[13] = test system: MCF7
[14] = test system: SR
[15] = test system: Hs-578T
[16] = test system: COLO 205
[17] = test system: SNB-75
[18] = test system: SK-MEL-28
[19] = test system: CCRF-CEM
[20] = test system: HCC 2998

Structure (SMILES)	GI50 [1]	GI50 [2]	GI50 [3]	GI50 [4]	GI50 [5]	GI50 [6]	GI50 [7]	GI50 [8]	GI50 [9]	GI50 [10]	GI50 [11]	GI50 [12]	GI50 [13]	GI50 [14]	GI50 [15]	GI50 [16]	GI50 [17]	GI50 [18]	GI50 [19]	GI50 [20]
O=C(O)CCC(=O)c1ccc[nH]1	> 100 µM (inactive)	> 100 µM (inactive)	> 100 µM (inactive)	> 100 µM (inactive)	> 100 µM (inactive)	> 100 µM (inactive)	> 100 µM (inactive)	> 100 µM (inactive)	> 100 µM (inactive)	> 100 µM (inactive)	> 100 µM (inactive)	64 µM (inactive)	> 100 µM (inactive)	> 100 µM (inactive)	> 100 µM (inactive)	> 100 µM (inactive)	> 100 µM (inactive)	–	–	–
NS(=O)(=O)c1cc(C(=O)O)c(O)c2ccccc12	> 100 µM (inactive)	> 100 µM (inactive)	> 100 µM (inactive)	> 100 µM (inactive)	> 100 µM (inactive)	> 100 µM (inactive)	> 100 µM (inactive)	> 100 µM (inactive)	> 100 µM (inactive)	> 100 µM (inactive)	> 100 µM (inactive)	> 100 µM (inactive)	> 100 µM (inactive)	> 100 µM (inactive)	49.7 µM (inactive)	> 100 µM (inactive)	82.6 µM (inactive)	> 100 µM (inactive)	> 100 µM (inactive)	–
COc1ccc(C2Oc3ccc(Cl)cc3C=C2[N+](=O)[O-])cc1 (stereo not given)	> 100 µM (inactive)	> 100 µM (inactive)	> 100 µM (inactive)	> 100 µM (inactive)	> 100 µM (inactive)	> 100 µM (inactive)	> 100 µM (inactive)	> 100 µM (inactive)	> 100 µM (inactive)	–	> 100 µM (inactive)	–	> 100 µM (inactive)	> 100 µM (inactive)	> 100 µM (inactive)	> 100 µM (inactive)	–	> 100 µM (inactive)	> 100 µM (inactive)	–
CN(C)CCCN1c2ccc([N+](=O)[O-])cc2CCc2cc([N+](=O)[O-])ccc21	13.7 µM (inactive)	13.8 µM (inactive)	16.9 µM (inactive)	17.9 µM (inactive)	11.3 µM (inactive)	–	14.8 µM (inactive)	13.4 µM (inactive)	16.6 µM (inactive)	15.7 µM (inactive)	11.4 µM (inactive)	15.1 µM (inactive)	–	–	15.2 µM (inactive)	14.9 µM (inactive)	12.3 µM (inactive)	15.3 µM (inactive)	–	9.84 µM (inactive)
Cc1cc2nc3c(C#N)c4c(c(-c5ccc(Cl)cc5)n3c2cc1C)CCC4	–	28.8 µM (inactive)	30.2 µM (inactive)	34.5 µM (inactive)	22.1 µM (inactive)	19.4 µM (inactive)	21.3 µM (inactive)	22.5 µM (inactive)	20.9 µM (inactive)	29.2 µM (inactive)	24.2 µM (inactive)	21.1 µM (inactive)	33.1 µM (inactive)	23.8 µM (inactive)	25.1 µM (inactive)	19.8 µM (inactive)	–	23.7 µM (inactive)	24.2 µM (inactive)	–
N#Cc1c(N2CCCC2)nsc1Nc1ccc(F)cc1	> 100 µM (inactive)	> 100 µM (inactive)	> 100 µM (inactive)	> 100 µM (inactive)	> 100 µM (inactive)	97.1 µM (inactive)	> 100 µM (inactive)	> 100 µM (inactive)	> 100 µM (inactive)	> 100 µM (inactive)	> 100 µM (inactive)	> 100 µM (inactive)	–	> 100 µM (inactive)	> 100 µM (inactive)	> 100 µM (inactive)	–	> 100 µM (inactive)	> 100 µM (inactive)	> 100 µM (inactive)
CCCC(CCC(N)=O)(CCC(N)=O)[N+](=O)[O-]	> 100 µM (inactive)	> 100 µM (inactive)	–	> 100 µM (inactive)	> 100 µM (inactive)	> 100 µM (inactive)	> 100 µM (inactive)	> 100 µM (inactive)	> 100 µM (inactive)	> 100 µM (inactive)	> 100 µM (inactive)	> 100 µM (inactive)	> 100 µM (inactive)	> 100 µM (inactive)	> 100 µM (inactive)	> 100 µM (inactive)	> 100 µM (inactive)	–	> 100 µM (inactive)	–
O=C1N/C(=N/N=C/c2c[nH]c3ccccc23)N/C1=C\c1c[nH]c2ccccc12	39.4 µM (inactive)	27.6 µM (inactive)	17.4 µM (inactive)	18.9 µM (inactive)	94.2 µM (inactive)	31 µM (inactive)	23.1 µM (inactive)	24.5 µM (inactive)	30.2 µM (inactive)	22.1 µM (inactive)	21.3 µM (inactive)	17 µM (inactive)	16 µM (inactive)	–	18.7 µM (inactive)	13.8 µM (inactive)	28.6 µM (inactive)	22.1 µM (inactive)	7.74 µM (inactive)	–
N=C(N)NCCN1CC2CCC(CC2)C1	> 100 µM (inactive)	51.9 µM (inactive)	> 100 µM (inactive)	> 100 µM (inactive)	> 100 µM (inactive)	> 100 µM (inactive)	65.2 µM (inactive)	48.5 µM (inactive)	> 100 µM (inactive)	> 100 µM (inactive)	> 100 µM (inactive)	80.4 µM (inactive)	–	> 100 µM (inactive)	91.4 µM (inactive)	93.1 µM (inactive)	19.7 µM (inactive)	> 100 µM (inactive)	–	> 100 µM (inactive)
Cc1ncc(C/N=C/c2ccc(Cl)cc2)c(N)n1	> 100 µM (inactive)	> 100 µM (inactive)	> 100 µM (inactive)	> 100 µM (inactive)	> 100 µM (inactive)	> 100 µM (inactive)	> 100 µM (inactive)	> 100 µM (inactive)	> 100 µM (inactive)	> 100 µM (inactive)	> 100 µM (inactive)	> 100 µM (inactive)	> 100 µM (inactive)	> 100 µM (inactive)	> 100 µM (inactive)	> 100 µM (inactive)	> 100 µM (inactive)	> 100 µM (inactive)	> 100 µM (inactive)	–
O=[N+]([O-])c1ccc(C(Nc2ccccc2)P(c2ccccc2)c2ccccc2)cc1 (stereo not given)	> 100 µM (inactive)	> 100 µM (inactive)	> 100 µM (inactive)	> 100 µM (inactive)	> 100 µM (inactive)	> 100 µM (inactive)	> 100 µM (inactive)	> 100 µM (inactive)	> 100 µM (inactive)	> 100 µM (inactive)	> 100 µM (inactive)	> 100 µM (inactive)	> 100 µM (inactive)	> 100 µM (inactive)	> 100 µM (inactive)	> 100 µM (inactive)	> 100 µM (inactive)	> 100 µM (inactive)	–	–
CC(C)c1nc(Cl)nc(Cl)c1Cl	0.414 µM (active)	0.679 µM (active)	< 0.0365 µM (active)	1.58 µM (inactive)	0.468 µM (active)	< 0.01 µM (active)	0.0479 µM (active)	0.241 µM (active)	3.12 µM (inactive)	0.515 µM (active)	0.264 µM (active)	2.27 µM (inactive)	–	< 0.01 µM (active)	0.302 µM (active)	0.239 µM (active)	5.11 µM (inactive)	0.357 µM (active)	< 0.01 µM (active)	0.948 µM (active)
COCc1nc2c(OC)c(-c3nc4ccc(N5CCN(C)CC5)nc4[nH]3)cc(OC)c2n1C	44.2 µM (inactive)	37.7 µM (inactive)	19.1 µM (inactive)	35.7 µM (inactive)	–	40.7 µM (inactive)	19.9 µM (inactive)	20.4 µM (inactive)	37.7 µM (inactive)	12.3 µM (inactive)	17.5 µM (inactive)	22.4 µM (inactive)	–	–	55.3 µM (inactive)	8.59 µM (inactive)	18.5 µM (inactive)	23.4 µM (inactive)	21 µM (inactive)	14.4 µM (inactive)
C/C(=N\NC(=S)N/N=C(\C)c1ccccn1)c1ccccn1	0.675 µM (active)	5.4 µM (inactive)	0.859 µM (active)	2.18 µM (inactive)	> 100 µM (inactive)	1.41 µM (inactive)	0.575 µM (active)	6.9 µM (inactive)	3.62 µM (inactive)	0.979 µM (active)	1.27 µM (inactive)	0.738 µM (active)	1.85 µM (inactive)	2.18 µM (inactive)	31.8 µM (inactive)	3 µM (inactive)	5.93 µM (inactive)	8.36 µM (inactive)	0.337 µM (active)	–
CC(=O)Nc1ccc(/N=N\c2c(O)c(S(=O)(=O)O)cc3cc(S(=O)(=O)O)ccc23)cc1	> 100 µM (inactive)	> 100 µM (inactive)	–	> 100 µM (inactive)	> 100 µM (inactive)	> 100 µM (inactive)	> 100 µM (inactive)	> 100 µM (inactive)	> 100 µM (inactive)	–	> 100 µM (inactive)	> 100 µM (inactive)	–	–	> 100 µM (inactive)	> 100 µM (inactive)	> 100 µM (inactive)	> 100 µM (inactive)	–	–
C1=C(CC2=C[P+](c3ccccc3)(c3ccccc3)C=C(c3ccccc3)O2)OC(c2ccccc2)=C[P+]1(c1ccccc1)c1ccccc1	1.04 µM (active)	0.337 µM (active)	0.431 µM (active)	0.494 µM (active)	0.475 µM (active)	2.21 µM (inactive)	0.358 µM (active)	0.304 µM (active)	0.482 µM (active)	0.362 µM (active)	0.644 µM (active)	–	0.392 µM (active)	0.26 µM (active)	0.241 µM (active)	0.162 µM (active)	0.291 µM (active)	0.724 µM (active)	0.361 µM (active)	–
